According to ChEMBL document CHEMBL1201862, “PubChem BioAssay data set” (2004):
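Dose response: 5 concentrations. Exposure: 48 h. Format: 96-well plates. Endpoint: linear interpolation; highest concentration if not reached. GI50 = concentration required for 50% inhibition of growth.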 The source made the active and inactive calls. No stated cut-off is given here; in the data, active = GI50 up to about 1.1 µM and inactive = higher.

Key:
Experiment in all cases: NCI anticancer screen, dose series, 48 h
[1] = test system: 786-0
[2] = test system: CCRF-CEM
[3] = test system: HCT-116
[4] = test system: Hs-578T
[5] = test system: MDA-N
[6] = test system: NCI-H226
[7] = test system: NCI/ADR-RES
[8] = test system: OVCAR-8
[9] = test system: RPMI-8226
[10] = test system: SF-268
[11] = test system: SF-295
[12] = test system: SK-MEL-5
[13] = test system: SK-OV-3
[14] = test system: TK-10
[15] = test system: UACC-257
[16] = test system: A549
[17] = test system: NCI-H460
[18] = test system: SNB-75
[19] = test system: NCI-H522
[20] = test system: SR

Measured: GI50

O=C(c1ccc(Cl)cc1Cl)N(C(=O)N1CCCCC1)c1ccccc1
inactive: [1] > 100 µM | [2] > 100 µM | [3] > 100 µM | [4] > 100 µM | [5] > 100 µM | [6] > 100 µM | [7] > 100 µM | [8] > 100 µM | [9] > 100 µM | [10] > 100 µM | [11] > 100 µM | [12] > 100 µM | [13] > 100 µM | [14] > 100 µM | [15] > 100 µM

Nc1ncnc2c1ncn2-c1ccc([N+](=O)[O-])cn1
inactive: [1] > 100 µM | [16] > 100 µM | [2] > 100 µM | [3] > 100 µM | [4] 61.9 µM | [5] > 100 µM | [6] > 100 µM | [17] > 100 µM | [7] > 100 µM | [8] > 100 µM | [9] > 100 µM | [10] > 100 µM | [11] > 100 µM | [12] > 100 µM | [13] > 100 µM | [18] 41.4 µM | [14] > 100 µM | [15] > 100 µM

COc1ccc(N2C(=O)C3c4[nH]c5ccccc5c4C4C(C)CCCC4C3C2=O)cc1 (configuration not stated)
inactive: [1] 17.5 µM | [16] > 45.1 µM | [2] 5.66 µM | [3] 13 µM | [4] 19.8 µM | [5] 3.19 µM | [6] 41.3 µM | [17] > 63.8 µM | [19] 7.94 µM | [7] 14.9 µM | [8] 34 µM | [9] 12.8 µM | [10] 41 µM | [11] 16.4 µM | [12] 35 µM | [13] > 81.3 µM | [18] 19.7 µM | [14] > 88.3 µM | [15] 39.3 µM

CCOP(=O)(OCC)C1CC(O)CN1OC(=O)C(C)(C)C (configuration not stated)
inactive: [1] > 100 µM | [16] > 100 µM | [2] > 100 µM | [3] > 100 µM | [4] > 100 µM | [5] > 100 µM | [6] > 100 µM | [7] > 100 µM | [8] > 100 µM | [9] > 100 µM | [10] > 100 µM | [11] > 100 µM | [12] > 100 µM | [13] > 100 µM | [18] > 100 µM | [20] > 100 µM | [14] > 100 µM | [15] > 100 µM

N#CC(Cc1ccccc1Br)N(CCC1=CCCCC1)C(c1ccccc1)c1ccccc1 (configuration not stated)
inactive: [1] > 100 µM | [16] 93.3 µM | [3] 32.8 µM | [4] > 100 µM | [5] 41.4 µM | [17] 57.3 µM | [19] 25.9 µM | [7] > 100 µM | [8] 76 µM | [9] 31.7 µM | [10] > 100 µM | [11] 58.7 µM | [12] 46 µM | [13] > 100 µM | [18] > 100 µM | [14] > 100 µM | [15] 61.8 µM

CCCCC[C@@H]1OC(=O)[C@@]2(CC3c4ccccc4C2c2ccccc23)[C@H]1C(=O)OC
inactive: [1] 67.3 µM | [16] 24.4 µM | [2] 17.2 µM | [3] 12.4 µM | [4] > 100 µM | [5] 79.6 µM | [17] 11.6 µM | [7] 64.6 µM | [8] 79.1 µM | [9] 9.68 µM | [10] > 100 µM | [11] 71 µM | [12] 17.2 µM | [13] 84.7 µM | [20] 10.1 µM | [14] 35.9 µM | [15] 14.5 µM

Cc1cc(Cc2c(F)c(F)c(Cc3cc(C)no3)c(F)c2F)on1
inactive: [1] 38.8 µM | [16] 12.9 µM | [2] > 100 µM | [3] > 100 µM | [4] 29.9 µM | [5] > 100 µM | [6] > 100 µM | [19] > 100 µM | [7] > 100 µM | [8] 83.9 µM | [9] > 100 µM | [10] 21.7 µM | [11] 39.9 µM | [12] 28.4 µM | [13] 38.5 µM | [18] 29 µM | [14] 54.2 µM | [15] > 100 µM

O=P1(O)c2ccccc2CSCc2ccccc21
inactive: [1] > 100 µM | [16] > 100 µM | [2] > 100 µM | [3] > 100 µM | [4] > 100 µM | [5] > 100 µM | [6] > 100 µM | [17] > 100 µM | [19] > 100 µM | [7] > 100 µM | [8] > 100 µM | [10] > 100 µM | [11] > 100 µM | [12] > 100 µM | [13] > 100 µM | [20] > 100 µM | [14] > 100 µM | [15] > 100 µM

O=c1oc2ccc3ccccc3c2cc1-c1cn2ccsc2n1
inactive: [1] 17.9 µM | [16] 49.9 µM | [2] 3.89 µM | [3] 16 µM | [4] 45.1 µM | [5] 21.4 µM | [17] 51.5 µM | [19] 17.1 µM | [7] 29.1 µM | [8] 19.2 µM | [9] 11.5 µM | [10] 24.8 µM | [11] 78.2 µM | [12] 15.4 µM | [13] > 100 µM | [18] > 100 µM | [20] 9.27 µM | [14] 17.9 µM | [15] 24.8 µM

COc1cc2ccnc3c2c(c1O)N(C)C=C3
inactive: [1] 7.19 µM | [16] 20.2 µM | [2] 3.88 µM | [3] 4 µM | [4] 18.7 µM | [5] 3.91 µM | [6] 18 µM | [17] 24.9 µM | [19] 1.59 µM | [7] 18.7 µM | [8] 9.53 µM | [9] 4.18 µM | [10] 17.7 µM | [11] 7.78 µM | [12] 12.8 µM | [13] 13.4 µM | [18] 21.5 µM | [14] 16.2 µM | [15] 15.6 µM

COc1cc(O)c(C(=O)/C=C/c2ccc(O)cc2)cc1Oc1ccc(/C=C/C(=O)c2ccc(O)cc2O)cc1 [RHUSCHALCONE III]
inactive: [1] 8.73 µM | [16] 14.8 µM | [2] 7.29 µM | [3] 7.85 µM | [4] 14.4 µM | [5] 8.93 µM | [17] 11.6 µM | [19] 7.41 µM | [7] 10.1 µM | [8] 9.02 µM | [9] 6.79 µM | [10] 8.81 µM | [11] 10.1 µM | [12] 7.36 µM | [13] 8.36 µM | [18] 12.6 µM | [20] 5.01 µM | [14] 9.79 µM | [15] 10.1 µM
